Source: BindingDB's records for patent US11028085 (Nimbus Saturn, 2021)
pIC50: −log10 of the molar value.

Target: Mitogen-activated protein kinase kinase kinase kinase 1 (Homo sapiens, UniProt Q92918)
Assay: Biochemical Enzyme Assay
Experimental: HPK1 biochemical enzyme assay: HPK1 enzyme inhibition was measured using a microfluidic mobility shift assay. […] Test compounds were titrated in ten point curves (top final assay concentration […]), and preincubated with enzyme/substrate mix for 30 min prior to initiation of the reaction by addition of ATP (1 mM final concentration) and substrate ([…] final concentration; Carna Biosciences) diluted in assay buffer supplemented by MgCl2 (final assay concentration of 5 mM). Following 60 min incubation at RT, the reaction was terminated by addition of 60 µl/well termination buffer (Carna Biosciences) and signal determination using a Caliper EZ Reader (Perkin Elmer, UK).

Mitogen-activated protein kinase kinase kinase kinase 1, sequence (Q92918 whole entry): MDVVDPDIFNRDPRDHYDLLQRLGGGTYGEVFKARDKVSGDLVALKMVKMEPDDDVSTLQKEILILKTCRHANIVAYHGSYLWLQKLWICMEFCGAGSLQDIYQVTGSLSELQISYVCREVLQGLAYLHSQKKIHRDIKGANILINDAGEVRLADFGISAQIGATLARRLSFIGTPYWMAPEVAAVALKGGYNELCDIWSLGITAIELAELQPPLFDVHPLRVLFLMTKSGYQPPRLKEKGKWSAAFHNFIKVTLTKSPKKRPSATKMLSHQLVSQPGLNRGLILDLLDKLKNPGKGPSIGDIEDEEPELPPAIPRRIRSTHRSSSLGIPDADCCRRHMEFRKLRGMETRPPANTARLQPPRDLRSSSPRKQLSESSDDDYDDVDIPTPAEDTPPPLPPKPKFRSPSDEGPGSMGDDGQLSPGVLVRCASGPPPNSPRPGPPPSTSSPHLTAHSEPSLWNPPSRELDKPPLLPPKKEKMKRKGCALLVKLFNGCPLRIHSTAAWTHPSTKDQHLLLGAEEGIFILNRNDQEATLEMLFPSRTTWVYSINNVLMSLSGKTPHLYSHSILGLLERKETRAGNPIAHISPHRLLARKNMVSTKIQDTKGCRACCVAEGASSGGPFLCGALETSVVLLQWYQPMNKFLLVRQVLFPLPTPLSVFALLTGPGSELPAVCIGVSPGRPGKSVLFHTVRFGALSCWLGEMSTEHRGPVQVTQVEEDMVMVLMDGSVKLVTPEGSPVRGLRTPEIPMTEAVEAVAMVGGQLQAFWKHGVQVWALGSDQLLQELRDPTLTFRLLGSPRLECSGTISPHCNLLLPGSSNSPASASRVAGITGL

Compound | IC50 | pIC50
CCOc1c(C#N)cnn2c(-c3ccc(Nc4ccc(N5CCC(O)CC5)cn4)c4c3CNC4=O)cnc12 [US11028085, Compound I-185] | in the range around 550 nM | –
CN1CC(c2ccn3c(-c4ccc(Nc5ccc(N6CCC(O)CC6)cc5)c5c4CNC5=O)cnc3c2)C1 [US11028085, Compound I-411] | – | > 7.00
